Test results as given in patent US20250320206A1, “STAT6 DEGRADERS” (Gilead Sciences, Inc., priority 2024, published 2025).
pEC50: −log10 of the molar value.

target: T1, STAT6 (Homo sapiens, UniProt P42226); assay: Stat6 Degrader Assay (HiBiT based, HeLa LgBiT clone 4.14); format: cell-based; conditions: HeLa LgBiT clone 4.14 HiBiT-STAT6, 4-24 h incubation; read-out: STAT6 degradation Emax
T1 construct: These cells express endogenous STAT6; host or cells: HeLa LgBiT clone 4.14
T1 sequence (P42226 1-847): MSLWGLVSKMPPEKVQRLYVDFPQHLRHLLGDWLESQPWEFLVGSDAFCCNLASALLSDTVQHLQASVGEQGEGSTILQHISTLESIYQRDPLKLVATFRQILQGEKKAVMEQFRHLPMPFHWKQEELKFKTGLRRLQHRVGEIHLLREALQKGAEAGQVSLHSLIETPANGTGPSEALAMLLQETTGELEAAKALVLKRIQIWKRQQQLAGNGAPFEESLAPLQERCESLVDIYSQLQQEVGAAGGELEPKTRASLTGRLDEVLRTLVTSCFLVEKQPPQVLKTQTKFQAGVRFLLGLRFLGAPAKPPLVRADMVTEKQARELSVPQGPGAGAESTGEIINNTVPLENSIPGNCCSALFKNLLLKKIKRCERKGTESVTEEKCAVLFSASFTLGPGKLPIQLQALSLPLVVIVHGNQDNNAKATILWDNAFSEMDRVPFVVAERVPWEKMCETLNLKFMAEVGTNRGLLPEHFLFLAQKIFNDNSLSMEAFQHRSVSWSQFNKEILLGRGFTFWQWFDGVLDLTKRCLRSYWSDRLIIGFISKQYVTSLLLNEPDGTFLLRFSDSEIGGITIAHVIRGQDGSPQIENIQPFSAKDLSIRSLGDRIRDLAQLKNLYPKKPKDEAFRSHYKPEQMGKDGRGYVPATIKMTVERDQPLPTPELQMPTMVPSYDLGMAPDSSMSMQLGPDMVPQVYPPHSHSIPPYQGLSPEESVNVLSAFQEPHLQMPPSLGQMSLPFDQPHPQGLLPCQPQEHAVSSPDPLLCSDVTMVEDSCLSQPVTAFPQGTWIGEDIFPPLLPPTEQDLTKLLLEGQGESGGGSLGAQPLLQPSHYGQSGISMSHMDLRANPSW
Outline: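 HeLa LgBiT clone 4.14 cells with CRISPR HiBiT-tagged endogenous STAT6, 5000 cells/well, compound dosed then incubated 4-24 h at 37° C, 5% CO2. Nano-Glo substrate added, 0.5 h, luminescence read as non-degraded STAT6. Terfenadine 50 μM (cell kill) defines 100% degradation.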

Row | Emax | Compound
1 | < 20% | C[C@H](c1cc2c(-n3ccc4[nH]ncc4c3=O)ccnc2n1C)N1CCC(c2ccc(C(=O)N3CCC(CN4CCN(Cc5ccc6c(c5)oc(=O)n6C5CCC(=O)NC5=O)CC4)CC3)cc2)CC1 (stereo partly drawn) [Example 3u265, 3-(6-((4-((1-(4-(1-((R)-1-(1-methyl-4-(4-oxo-1,4-dihydro-5H-pyrazolo[4,3-c]pyridin-5-yl)-1H-pyrrolo[2,3-b]pyridin-2-yl)ethyl)piperidin-4-yl)benzoyl)piperidin-4-yl)methyl)piperazin-1-yl)methyl)-2-oxobenzo[d]oxazol-3 (2H)-yl)piperidine-2,6-dione]

same assay, conditions: HeLa LgBiT clone 4.14 HiBiT-STAT6, 4-24 h incubation; values given for compounds with >80% Emax; geometric mean; read-out: STAT6 degradation DC50

Row | Compound | DC50
2 | Cc1cc(C(=O)N2CCC(CN3CCN(Cc4ccc5c(c4)n(C)c(=O)n5[C@@H]4CCC(=O)NC4=O)C[C@@H]3C)CC2)cc(F)c1C1CCN(Cc2cc3c(-n4ccc5c(c4=O)CCN5)ccnc3n2C)CC1 (single isomer, unassigned) [Example 3u40] | 2.3 nM
3 | CNc1ccn(-c2ccnc3c2cc(CN2CC=C(c4c(F)cc(C(=O)N5CCC(CN6CCN(Cc7ccc8c(c7)n(C)c(=O)n8[C@H]7CCC(=O)NC7=O)C[C@@H]6C)CC5)cc4F)CC2)n3C)c(=O)c1 (single isomer, unassigned) [Example 3u2] | 4.3 nM
4 | Cc1cc(C(=O)N2CCC(CN3CCN(Cc4cc5c(cc4F)n([C@H]4CCC(=O)NC4=O)c(=O)n5C4CC4)CC3)CC2)cc(F)c1C1=CCN([C@@H](C)c2cc3c(-n4ccc5c(c4=O)CCN5)ccnc3n2C)CC1 (single isomer, unassigned) [Example 3u147] | 1.6 nM
5 | CNc1ccn(-c2ccnc3c2cc([C@H](C)N2CC=C(c4c(C)cc(C(=O)N5CCC(CN6CCN(Cc7ccc8c(c7)n(C7CC7)c(=O)n8[C@H]7CCC(=O)NC7=O)CC6)CC5)cc4F)CC2)n3C)c(=O)c1 (single isomer, unassigned) [Example 3u123] | 0.9 nM
6 | CNc1ccn(-c2ccnc3c2cc([C@H](C)N2CC=C(c4c(C)cc(C(=O)N5CCC(CN6CCN(Cc7ccc8c(c7)C(F)(F)C(=O)N8C7CCC(=O)NC7=O)CC6)CC5)cc4F)CC2)n3C)c(=O)c1 (stereo partly drawn) [Example 3u255, 3-(3,3-difluoro-5-((4-((1-(3-fluoro-5-methyl-4-(1-((S)-1-(1-methyl-4-(4-(methylamino)-2-oxopyridin-1 (2H)-yl)-1H-pyrrolo[2,3-b]pyridin-2-yl)ethyl)-1,2,3,6-tetrahydropyridin-4-yl)benzoyl)piperidin-4-yl)methyl)piperazin-1-yl)methyl)-2-oxoindolin-1-yl)piperidine-2,6-dione] | 13.7 nM
7 | CNc1ccn(-c2cccc3c2cc([C@H](C)N2CC=C(c4c(C)cc(C(=O)N5CCC(CN6CCN(Cc7cc8c(cc7F)n([C@H]7CCC(=O)NC7=O)c(=O)n8C7CC7)C[C@@H]6C)CC5)cc4F)CC2)n3C)c(=O)c1 (single isomer, unassigned) [Example 3u167] | 0.8 nM

Now from value to compound:

Row | DC50 | Compound
8 | 0.6 nM | CNc1ccn(-c2ccnc3c2cc([C@H](C)N2CC=C(c4c(C)cc(C(=O)N5CCC(CN6CCN(Cc7ccc8c(c7)n(C7CC7)c(=O)n8[C@@H]7CCC(=O)NC7=O)C[C@@H]6C)CC5)cc4F)CC2)n3C)c(=O)c1 (single isomer, unassigned) [Example 3u113]
9 | 2.4 nM | Cc1cc(C(=O)N2CCC(CN3CCN(Cc4ccc5c(c4)n(C4CC4)c(=O)n5[C@H]4CCC(=O)NC4=O)CC3)CC2)cc(F)c1C1=CCN([C@@H](C)c2cc3c(-n4ccc5c(c4=O)CCN5)ccnc3n2C)CC1 (single isomer, unassigned) [Example 3u142]
10 | 2 nM | Cc1cc(C(=O)N2CCC(CN3CCN(Cc4ccc5c(c4)n(C4CC4)c(=O)n5[C@H]4CCC(=O)NC4=O)C[C@@H]3C)CC2)cc(F)c1C1=CCN([C@@H](C)c2cc3c(-n4ccc5c(c4=O)CCN5)ccnc3n2C)CC1 (single isomer, unassigned) [Example 3u145]
11 | 0.6 nM | CNc1ccn(-c2ccnc3c2cc([C@H](C)N2CC=C(c4c(C)cc(C(=O)N5CCC(CN6CCN(Cc7cc8c(cc7F)n(C7CCC(=O)NC7=O)c(=O)n8C)CC6)CC5)cc4F)CC2)n3C)c(=O)c1 (stereo partly drawn) [Example 3u10, 3-(6-fluoro-5-((4-((1-(3-fluoro-5-methyl-4-(1-((S)-1-(1-methyl-4-(4-(methylamino)-2-oxopyridin-1 (2H)-yl)-1H-pyrrolo[2,3-b]pyridin-2-yl)ethyl)-1,2,3,6-tetrahydropyridin-4-yl)benzoyl)-piperidin-4-yl)methyl)piperazin-1-yl)methyl)-3-methyl-2-oxo-2,3-dihydro-1H-benzo[d]imidazol-1-yl)piperidine-2,6-dione]
12 | 0.8 nM | CNc1ccn(-c2ccnc3c2cc([C@H](C)N2CCC(c4c(F)cc(C(=O)N5CCC(CN6CCN(Cc7ccc8c(c7)C(C)(C)C(=O)N8[C@H]7CCC(=O)NC7=O)C[C@@H]6C)CC5)cc4F)CC2)n3C)c(=O)c1 (single isomer, unassigned) [Example 3u81]

system: Eotaxin-3 release in human whole blood stimulated with IL-4; assay: Human Whole Blood Eotaxin-3 Assay (IL-4 stimulated eotaxin-3 release); format: cell-based; conditions: IL-4 stimulation, 48 h, values given for compounds with >80% Emax, geometric mean
Procedure: Human Whole Blood Eotaxin-3 Assay
This was a human whole blood assay using recombinant human Interleukin 4 to stimulate the blood and measuring the ability of the test compounds to inhibit eotaxin-3 release. The biological activities of the test compounds have been tested in human whole blood stimulated with IL-4 measuring Eotaxin-3 release. The test compounds were added to 384 well clear flat-bottom plate in a 4-fold serial dilution in triplicates using a liquid handler. Human whole blood stabilized in lithium-heparin tubes was added in a volume of 65 μL per well, resulting in a final DMSO concentration of 0.5%. The plate is incubated for 2 h at 37° C. under 5% CO2/95% air. Subsequently, 5 μL of recombinant human IL-4 (R&D Systems, cat #204-ILB) was added to the wells to a final concentration of […]. The plate was incubated for 48 h at 37° C. under 5% CO2/95% air. The plate was spun down for 10 minutes at 500×g and 20 μL supernatant was harvested and transferred to a 384 well v-bottom plate using a liquid handler and stored at −20° C. until further analysis. 10 μL supernatant was used to measure the level of Eotaxin-3 (CCL26) using Human Eotaxin-3 MSD kit from Mesocsale (Cat #K251UEK-4). The assay was performed according to the manufacture instructions.
The data from the human whole blood eotaxin-3 assay is shown in FIG. 2 for Examples 3u208, 3u246, 3u118, 3u119, 3u120, and 3u74 (where the effect in % is plotted against the test concentration in M on a log scale).

Row | pEC50 | Compound
13 | 8.16 | CNc1cc(=O)n(-c2ccnc3c2cc([C@H](C)N2CC=C(c4c(C)cc(C(=O)N5CCC(CN6CCC(c7ccc8c(c7)C7(CC7)C(=O)N8C7CCC(=O)NC7=O)CC6)CC5)cc4F)CC2)n3C)cc1F (stereo partly drawn) [Example 3u282, 3-(5′-(1-((1-(3-fluoro-4-(1-((S)-1-(4-(5-fluoro-4-(methylamino)-2-oxopyridin-1 (2H)-yl)-1-methyl-1H-pyrrolo[2,3-b]pyridin-2-yl)ethyl)-1,2,3,6-tetrahydropyridin-4-yl)-5-methylbenzoyl)-piperidin-4-yl)methyl)piperidin-4-yl)-2′-oxospiro[cyclopropane-1,3′-indolin]-1′-yl)piperidine-2,6-dione]
14 | 6.71 | CNc1cc(=O)n(-c2ccnc3c2cc([C@H](C)N2CC=C(c4c(C)cc(C(=O)N5CCC(CN6CCN(c7cc8c(cc7F)N(C7CCC(=O)NC7=O)C(=O)C8(C)C)CC6)CC5)cc4F)CC2)n3C)cc1F (stereo partly drawn) [Example 3u306, 3-(6-fluoro-5-(4-((1-(3-fluoro-4-(1-((S)-1-(4-(5-fluoro-4-(methylamino)-2-oxopyridin-1 (2H)-yl)-1-methyl-1H-pyrrolo[2,3-b]pyridin-2-yl)ethyl)-1,2,3,6-tetrahydropyridin-4-yl)-5-methylbenzoyl)piperidin-4-yl)methyl)piperazin-1-yl)-3,3-dimethyl-2-oxoindolin-1-yl)piperidine-2,6-dione]
15 | 8.09 | Cc1cc(C(=O)N2CCC(CN3CCN(c4cc5c(cc4F)n(C4CCC(=O)NC4=O)c(=O)n5C)CC3)CC2)cc(F)c1C1=CCN([C@@H](C)c2cc3c(-n4cc(F)c5c(c4=O)CCN5)ccnc3n2C)CC1 (stereo partly drawn) [Example 3u253, 3-(6-fluoro-5-(4-((1-(3-fluoro-4-(1-((S)-1-(4-(7-fluoro-4-oxo-1,2,3,4-tetrahydro-5H-pyrrolo[3,2-c]pyridin-5-yl)-1-methyl-1H-pyrrolo[2,3-b]pyridin-2-yl)ethyl)-1,2,3,6-tetrahydropyridin-4-yl)-5-methylbenzoyl)piperidin-4-yl)methyl)piperazin-1-yl)-3-methyl-2-oxo-2,3-dihydro-1H-benzo[d]imidazol-1-yl)piperidine-2,6-dione]
